Assay results published in patent US10710962B2, “Zwitterionic reagents” (Siemens Healthcare Diagnostics Inc., priority 2010, dated 2020).

Target: T1, BSA-NSP-DMAE (Bos taurus, UniProt P02769)
T1 construct: NSP-DMAE acridinium ester (chemical label attached through an amine-reactive NHS ester, about 1.4 per molecule)
Assay: Zwitterion label incorporation into acridinium ester labeled BSA, measured by MALDI-TOF mass spectroscopy
Parameters: species or system bovine
Procedure: The zwitterion-containing compounds of the present invention may also be useful for lowering the non-specific binding of hydrophobic and ‘sticky’ proteins. In one experiment, the chemical competency of certain exemplary amine-reactive zwitterion-containing compounds shown in FIG. 1 were evaluated by treating an acridinium ester (e.g., 2′,6′-Dimethyl-4′-(N-succinimidyloxycarbonyl)phenyl 10-Methyl-9-acridinecarboxylate Methylsulfate (NSP-DMAE) or other suitable acridinium esters described by Law et al. in U.S. Pat. No. 5,656,426, which is incorporated herein by reference) labeled bovine serum albumin (BSA) or bovine gamma globulin (BGG) with 10 and 20 equivalents of the zwitterion-containing compound followed by measurement of the zwitterion-containing compound incorporation by mass spectroscopy. The detailed experimental protocol is described in Example 15.
A solution of BSA (4 mg, 60 nmoles) in 1 mL of 0.1 M sodium bicarbonate was treated with 5 equivalents of 2′,6′-Dimethyl-4′-(N-succinimidyloxycarboxnyl)phenyl 10-(3′-Sulfopropyl)-acridinium-9-carboxylate (NSP-DMAE-NHS) added as a solution in DMF (72 μL of a 2 mg/mL solution in DMF). The reaction was stirred at room temperature for 4 hours. The reaction was then transferred to a 4 mL amicon filter (MW 30,000 cutoff) and diluted with 3 mL de-ionized water. The filter was centrifuged at 4000G for 8 minutes to reduce the volume to about 0.25 mL. The final conjugate was diluted to 0.8 mL with de-ionized water to give a 5 mg/mL solution. Acridinium ester label incorporation, measured by MALDI-TOF mass spectroscopy using sinnapinic acid as matrix indicated the incorporation of 1.4 labels.
Further labeling of the acridinium ester-labeled BSA conjugate with the zwitterion labels 1d, 2c, 3c and 4c was carried out as follows. The conjugate (0.5 mg, 7.5 nmoles, 100 μL) was diluted with 100 μL of sodium carbonate, pH 9. To this conjugate, in four separate reactions, was added 10 equivalents of the four zwitterion labels 1d, 2c, 3c and 4c dissolved in DMSO corresponding to 12.8 μL of a 2.5 mg/mL solution of 1d; 16.5 μL of a 2 mg/mL solution of 2c; 16.5 μL of a 2 mg/mL solution of 3c and 14 μL of a 2.5 mg/mL solution of 4c. The reactions were stirred at room temperature for 4 hours and were then processed as described above.

T1 sequence (P02769 25-607): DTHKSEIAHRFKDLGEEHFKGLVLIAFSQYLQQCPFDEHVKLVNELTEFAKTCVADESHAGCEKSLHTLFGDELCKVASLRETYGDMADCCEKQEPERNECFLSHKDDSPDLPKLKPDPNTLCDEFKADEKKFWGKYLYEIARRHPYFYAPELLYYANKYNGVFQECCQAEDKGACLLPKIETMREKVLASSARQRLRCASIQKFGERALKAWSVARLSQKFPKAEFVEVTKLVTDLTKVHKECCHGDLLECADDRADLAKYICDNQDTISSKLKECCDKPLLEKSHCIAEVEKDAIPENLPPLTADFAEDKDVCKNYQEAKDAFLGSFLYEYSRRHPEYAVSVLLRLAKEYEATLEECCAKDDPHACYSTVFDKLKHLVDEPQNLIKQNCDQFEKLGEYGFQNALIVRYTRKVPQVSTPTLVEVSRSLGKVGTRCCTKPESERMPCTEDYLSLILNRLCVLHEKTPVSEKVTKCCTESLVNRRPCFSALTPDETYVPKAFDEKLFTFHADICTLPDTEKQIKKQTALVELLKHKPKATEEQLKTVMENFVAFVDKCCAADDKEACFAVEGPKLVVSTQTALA

# of Zwitterion-Containing Compounds Incorporated by Conjugate (input 10 equivalents)	# of Zwitterion-Containing Compounds Incorporated by Conjugate (input 20 equivalents)	SMILES
5		C[N+](C)(CCCC(=O)Oc1c(F)c(F)c(F)c(F)c1F)CCS(=O)(=O)[O-] [Compound 1d]
5	8	C[N+](C)(CCCC(=O)Oc1c(F)c(F)c(F)c(F)c1F)CCCS(=O)(=O)[O-] [Compound 2c]
3.3		C[N+](C)(CCCCS(=O)(=O)[O-])CCCC(=O)Oc1c(F)c(F)c(F)c(F)c1F [Compound 3c]
3.4	7.1	CCCOP(=O)([O-])OCC[N+](C)(C)CCCC(=O)Oc1c(F)c(F)c(F)c(F)c1F [Compound 4c]
